Source: PubChem BioAssay AID1919003 (Molecular Pharmacology Branch, DTP, NCI, 2023)

Test system: 786-0 complex spheroids with HUVEC/MSC, growth % test/control
Assay: Anticancer human tumor 786-0 cell line growth inhibition [AhR];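 further: compound exposure lasted seven days before the read-out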
Conditions: for IC50: curve of first compound; for viability, T/C: stronger effect = lower value
Method in brief: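 Spheroids combined tumor cells with HUVEC endothelial cells and human MSCs as stroma. AhR antagonists were paired with standard or investigational drugs, each dosed in half-log steps down from near clinical Cmax, or from 10 microM where Cmax was unknown.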

[1] = second compound 0.1 µM, first compound 0.0316 µM
[2] = second compound 0.1 µM, first compound 0.1 µM
[3] = second compound 0.1 µM, first compound 0.316 µM
[4] = second compound 0.1 µM, first compound 1 µM
[5] = second compound 0.1 µM, first compound 3.16 µM
[6] = second compound 0.1 µM, first compound 10 µM
[7] = second compound 0.316 µM, first compound 0.0316 µM
[8] = second compound 0.316 µM, first compound 0.1 µM
[9] = second compound 0.316 µM, first compound 0.316 µM
[10] = second compound 0.316 µM, first compound 1 µM
[11] = second compound 0.316 µM, first compound 3.16 µM
[12] = second compound 0.316 µM, first compound 10 µM
[13] = second compound 1 µM, first compound 0.0316 µM
[14] = second compound 1 µM, first compound 0.1 µM
[15] = second compound 1 µM, first compound 0.316 µM
[16] = second compound 1 µM, first compound 1 µM
[17] = second compound 1 µM, first compound 3.16 µM
[18] = second compound 1 µM, first compound 10 µM
[19] = second compound 3.16 µM, first compound 0.0316 µM
[20] = second compound 3.16 µM, first compound 0.1 µM
[21] = second compound 3.16 µM, first compound 0.316 µM
[22] = second compound 3.16 µM, first compound 1 µM
[23] = second compound 3.16 µM, first compound 3.16 µM
[24] = second compound 3.16 µM, first compound 10 µM
[25] = second compound 10 µM, first compound 0.0316 µM
[26] = second compound 10 µM, first compound 0.1 µM
[27] = second compound 10 µM, first compound 0.316 µM
[28] = second compound 10 µM, first compound 1 µM
[29] = second compound 10 µM, first compound 3.16 µM
[30] = second compound 10 µM, first compound 10 µM
[31] = second compound 0.1 µM, first compound 0.00316 µM
[32] = second compound 0.1 µM, first compound 0.01 µM
[33] = second compound 0.316 µM, first compound 0.00316 µM
[34] = second compound 0.316 µM, first compound 0.01 µM
[35] = second compound 1 µM, first compound 0.00316 µM
[36] = second compound 1 µM, first compound 0.01 µM
[37] = second compound 3.16 µM, first compound 0.00316 µM
[38] = second compound 3.16 µM, first compound 0.01 µM
[39] = second compound 10 µM, first compound 0.00316 µM
[40] = second compound 10 µM, first compound 0.01 µM

Compound	IC50 (second compound 0.1 µM)	IC50 (second compound 0.316 µM)	IC50 (second compound 1 µM)	IC50 (second compound 3.16 µM)	IC50 (second compound 10 µM)	viability, T/C [1]	viability, T/C [2]	viability, T/C [3]	viability, T/C [4]	viability, T/C [7]	viability, T/C [8]	viability, T/C [9]	viability, T/C [10]	viability, T/C [13]	viability, T/C [14]	viability, T/C [15]	viability, T/C [16]	viability, T/C [19]	viability, T/C [20]	viability, T/C [21]	also measured
CC(C)c1c(-c2ccccc2)nc2c(C#N)c[nH]n2c1=O + CC(CO)NC(=O)c1cc(-c2ccc(Cl)cc2)nn(-c2cnn(C)c2)c1=O	> 10000 nM	> 10000 nM	> 10000 nM	> 10000 nM	> 10000 nM	98%	95.9%	104%	106%	95%	101%	93.2%	95.1%	99.9%	99.1%	105%	104%	100%	96.5%	97.9%	viability, T/C [5]: 93.7%; viability, T/C [6]: 104%; viability, T/C [11]: 92.3%; viability, T/C [12]: 90%; viability, T/C [17]: 107%; viability, T/C [18]: 96.2%; viability, T/C [22]: 99.5%; viability, T/C [23]: 106%; viability, T/C [24]: 101%; viability, T/C [25]: 118%; viability, T/C [26]: 105%; viability, T/C [27]: 105%; viability, T/C [28]: 108%; viability, T/C [29]: 103%; viability, T/C [30]: 125%
CC1COCCN1c1cc(-c2ccnn2C)c2ccnc(-c3ccn[nH]3)c2n1 (stereo not given) + CC(CO)NC(=O)c1cc(-c2ccc(Cl)cc2)nn(-c2cnn(C)c2)c1=O	134 nM	109 nM	98.3 nM	79.4 nM	51.1 nM	106%	63.5%	11.1%	3.76%	105%	53.3%	7.31%	3.22%	104%	49%	8.48%	3.85%	103%	36.7%	6.89%	viability, T/C [31]: 100%; viability, T/C [32]: 100%; viability, T/C [33]: 112%; viability, T/C [34]: 103%; viability, T/C [35]: 97.6%; viability, T/C [36]: 110%; viability, T/C [37]: 112%; viability, T/C [38]: 114%; viability, T/C [22]: 3.57%; viability, T/C [39]: 116%; viability, T/C [40]: 109%; viability, T/C [25]: 78.5%; viability, T/C [26]: 10.1%; viability, T/C [27]: 2.89%; viability, T/C [28]: 2.73%
COc1ccc([C@@H](O)c2cc(-c3ncnc4cc(N5CCOCC5)ccc34)c(F)cc2Cl)nn1 + CC(CO)NC(=O)c1cc(-c2ccc(Cl)cc2)nn(-c2cnn(C)c2)c1=O	> 10000 nM	> 10000 nM	> 10000 nM	> 10000 nM	> 10000 nM	99.5%	109%	111%	115%	102%	107%	118%	106%	110%	114%	110%	113%	102%	112%	114%	viability, T/C [5]: 117%; viability, T/C [6]: 85.2%; viability, T/C [11]: 108%; viability, T/C [12]: 91.2%; viability, T/C [17]: 114%; viability, T/C [18]: 91.6%; viability, T/C [22]: 111%; viability, T/C [23]: 107%; viability, T/C [24]: 83.2%; viability, T/C [25]: 117%; viability, T/C [26]: 122%; viability, T/C [27]: 115%; viability, T/C [28]: 115%; viability, T/C [29]: 100%; viability, T/C [30]: 78%
COc1cccc2c1C(=O)c1c(O)c3c(c(O)c1C2=O)CC(O)(C(=O)CO)CC3OC1CC(N)C(O)C(C)O1 (stereo not given) + Cc1ccccc1N=Nc1ccc(NC(=O)c2ccnn2C)c(C)c1	126 nM	122 nM	132 nM	119 nM	76.5 nM	73.8%	56.6%	24.7%	9.36%	69.3%	55.7%	24.7%	10.1%	77.4%	57.4%	26.7%	9.75%	66.6%	55.2%	24.5%	viability, T/C [5]: 1.43%; viability, T/C [6]: 1.74%; viability, T/C [11]: 2.44%; viability, T/C [12]: 3.3%; viability, T/C [17]: 1.55%; viability, T/C [18]: 1.78%; viability, T/C [22]: 9.36%; viability, T/C [23]: 1.41%; viability, T/C [24]: 1.09%; viability, T/C [25]: 57.6%; viability, T/C [26]: 48.8%; viability, T/C [27]: 22.4%; viability, T/C [28]: 9.51%; viability, T/C [29]: 1.98%; viability, T/C [30]: 1.15%
Nc1ncn(C2CC(O)C(CO)O2)c(=O)n1 (stereo not given) + Cc1ccccc1N=Nc1ccc(NC(=O)c2ccnn2C)c(C)c1	> 1000 nM	> 1000 nM	> 1000 nM	> 1000 nM	> 1000 nM	105%	101%	98.3%	90.6%	106%	99.5%	96.6%	92.9%	105%	104%	95.2%	94.5%	100%	94.9%	92.8%	viability, T/C [31]: 103%; viability, T/C [32]: 114%; viability, T/C [33]: 105%; viability, T/C [34]: 104%; viability, T/C [35]: 106%; viability, T/C [36]: 112%; viability, T/C [37]: 104%; viability, T/C [38]: 102%; viability, T/C [22]: 89.7%; viability, T/C [39]: 93.4%; viability, T/C [40]: 95.3%; viability, T/C [25]: 91.3%; viability, T/C [26]: 87.1%; viability, T/C [27]: 83.2%; viability, T/C [28]: 77.2%
